Source: patent US6482833B2, “Immunotherapeutic anti-cancer pharmaceutical compositions” (North Shore - Long Island Jewish Research Institute, priority 1997, dated 2002)
“Also recorded” adds a separate entry of the source.

Assays:
[1] = system: B16 F1 tumor cells; experiment: In vivo mouse tumor model (B16 F1 cells), tumor size and formation; set-up: species or system mice; details: for solid tumor masses: mice, administered parenterally
[2] = system: tumor cells; experiment: Direct cytotoxicity of the immunomodulatory compounds; format: cell-based; details: effective immunostimulatory concentrations
[3] = Carrageenan foot pad edema model of inflammation; format: in vivo, mice
Description: To determine an inflammatory […] foot pad edema model with carrageenan, female C3H/HeN mice (20-25g) were obtained from Jackson Laboratories, and 5 mice were used in each group to obtain statistically significant results. […] Louis, Mo.) was made in PBS at 37° C. 3 days or more before using. […] Louis, Mo.) was made freshly each time. Carrageenan (50 μl, 0.2%) was injected into the plantar surface of the left hind paw to induce paw edema in control group. and spermine at the doses indicated was coadministered in 50 μl PBS in three spermine groups. The right hind paw was injected with the same volume of PBS as control for every groups. The thickness of the two paws was measured double-blindly using a caliper 3 hours and 28 hours later. The difference in the thickness between the two paws was taken as inflammatory index.

[4] = system: TNFα release from LPS-stimulated macrophage cell cultures; experiment: TNF release from LPS-activated monocyte/macrophage cultures counter-regulated by spermine (ELISA); format: cell-based, human; details: for override of spermine inhibition of TNFα release: LPS-stimulated cells with spermine, TNFα in culture supernatants, dose-response
Description: Macrophage activation was measured by release of TNF into macrophage cell culture supernatants.
Monocytes were isolated and cultured by isolating fresh human PBMCs from EDTA-blood from healthy donors (Long Island Blood Service, Melville, N.Y.) by Ficoll-Paque (Pharmacia, Uppsala, Sweden) gradient. Cells were suspended in RPMI 1640 medium (Gibco BRL, Grand Island, N.Y.) containing 10% heat-inactivated human serum, 0.1% L-glutamine, and 0.01% gentamycin), and cultured at 37° C. in a humidified atmosphere of 5% CO2 and 95% air. PBMCs were plated in 96-well plates at 5×10^5 cells per well for cytokine assay and uptake study or in 24-well plates at 5×10^6 cells per well for RNA study. Nonadherent cells were removed after overnight culture, and adherent cells (monocytes) were then used for experiment.
(§1) Monocytes were activated to release cytokines by treating cells with 100 ng/ml sonicated LPS (Sigma, St Louis, Mo.) and 25 u/ml recombinant human interferon-γ (Boehringer Mannheim, Mannheim, Germany) except 1 μg/ml LPS alone for IL-1β. For treating cells with spermine, cells were pretreated with spermine (Sigma, St Louis, Mo.) one hour before LPS/IFG stimulation. Spermine was made freshly each time in sterile-filtered deionized water at 51.2 mM or 35 mM, and then diluted in complete RPMI 1640 medium followed by adding to individual wells to yield the final concentration indicated. Control wells received an equal volume of medium only were used in all experiment.

[5] = system: TNF; experiment: TNF levels in tumor biopsy samples of solid tumor-bearing mice; format: in vivo; details: 1 mg/kg ip; tumor biopsy samples in four mice
[6] = system: G361 cells; experiment: Macrophage-mediated cytotoxicity of LPS-activated monocytes to tumor cells
Description: Tumor cell cultures were split tumor cells 1:3 in FBS-containing RPMI 1640 medium and incubate overnight 20 μCi/ml ^3H-thymidine was added to tumor cell cultures to label the cells overnight. The cells were washed to remove unabsorbed label. The cells were trypsinized and suspended in 10 ml DPBS, washed and counted. Flasks of 7.5×10^5, 7.5/2×10^5, 7.5/4×10^5, 7.5/8×10^5, 7.5/16×10^5 and 7.7/32×10^5 cells/ml in RPMI 1640 medium were prepared. The tumor cells (200 μl) were added to wells containing 3×10^5 monocytes or control wells to make the E/T ratio 2:1, 4:1, 8:1, 16:1, 32:1 and 64:1. The cell mixture was incubated for 2 hours and macrophage-mediated cytotoxicity to tumor cells was determined.
PBMCs were isolated in a Ficoll-Paque (Pharmacia) gradient and plated. After 2 hours of incubation, the nonadherent cells were removed by rinsing with RPMI 1640 medium without serum 3×, then add 25 ml human serum-containing RPMI 1640 medium with 2 ng/ml human MCSF to each 75 flask and incubate the cells overnight. The cells were labeled with 20 uCi/ml ^3H-thymidine overnight and washed 2× with DPBS without Ca & Mg. The monocytes were isolated and counted, then diluted to 1.5×10^6 cells/ml in RPMI 1640. Tumor cells were diluted to 7.5×10^5, 7.5/2×10^5, 7.5/4×10^5, 7.5/8×10^5, 7.5/16×10^5 and 7.7/32×10^5 cells/ml in RPMI 1640 medium. About 200 μl tumor cells were added at different concentration to the wells containing 3×10^5 monocytes or control wells to make the E/T ratio 2:1, 4:1, 8:1, 16:1, 32:1 and 64:1, then incubated for 2 hrs.
About 400 μg/μl LPS was sonicated for 10 min, then 19.2 μl 400 μg/ml LPS was added to 10 ml RPMI 1640 medium.

[7] = system: monocytes; details: spermine at the concentrations indicated
Description: as §1

[8] = 50 μM spermine, macrophages activated by endotoxin (LPS)

**Q.** What does the source list for `CC1(C)CC(NCCCCCCNC2CC(C)(C)NC(C)(C)C2)CC(C)(C)N1` [compound 38, N,N′-bis(2,2,6,6-tetramethyl-4-piperidyl)hexamethylenediamine]?
**A.** tumor formation ([1]; mice inoculated with equal amounts of tumor cells, three doses at two concentrations): delayed tumor formation; solid tumor masses [1]: shrink solid tumor masses; direct cytotoxicity [2]: not cytotoxic; paw edema, override of inflammatory inhibition by spermine ([3]; in vivo mouse paw edema model, dose response): overrode the inflammatory inhibition by spermine; paw thickness, override of spermine effect ([3]; mouse foot pad carrageenan model, clinical concentrations): overrides the spermine effect; override of spermine inhibition of TNFα release [4]: overcome spermine inhibition of TNFα release; also recorded: effectively overrode spermine-induced suppression of TNF secretion

**Q.** Which “tumor size, time-response” value ([1]; 2 mg/kg) does the source give for `NCCCN1CCN(CCCN)CC1` [compound 91] here?
**A.** Its value is “shrink tumor size”.

**Q.** And the “growth of established tumors” value ([1]; 2 mg/kg administered seven days after tumor inoculation)?
**A.** The value was “inhibited the growth of established tumors”.

**Q.** And the solid tumor masses [1]?
**A.** The solid tumor masses was “shrink solid tumor masses”.

**Q.** What about the “tumor size, time response and dose-response” value ([1]; two doses i.p., 0.5 mg/kg and 2 mg/kg in sterile PBS) of the same compound?
**A.** Its value is “shrink tumor size”.

**Q.** What about the direct cytotoxicity [2] of the same compound?
**A.** Its direct cytotoxicity is “not cytotoxic”.

**Q.** What about the “TNF levels in tumors” value [5] of the same compound?
**A.** Its value is “significantly increase TNF levels in tumors”.

**Q.** What about the “override of spermine inhibition of TNFα release” value [4] of the same compound?
**A.** The value was “effectively overrode spermine-induced suppression of TNF secretion”.

**Q.** With `NCCCCC(CN)CCCN` (stereo not shown) [compound 94] as the compound, how does the direct cytotoxicity [2] read?
**A.** The direct cytotoxicity was “not cytotoxic”.

**Q.** Which “override of spermine inhibition of TNFα release” value [4] does the source give for `C(CCC1CCNCC1)CC1CCNCC1` [compound 214140] here?
**A.** The value was “override the inhibitory effect of spermine”.

**Q.** What does the source list for `NCCCNCCCCNCCCN` [spermine]?
**A.** percent cytotoxicity, LPS alone versus LPS with spermine ([6]; 100 ng/ml LPS, 50 mM spermine, several ratios): reduces LPS-induced cytotoxicity; cellular cytotoxicity of activated monocytes against G361 cells ([6]; 100 ng/ml LPS, 50-100 μM spermine): significantly inhibited; macrophage-mediated tumor cell killing [6, 8]: effectively suppressed macrophage-mediated tumor cell killing; cell viability (LDH assay) [7]: did not affect cell viability significantly; acute footpad inflammation induced by carageenan ([3]; local administration in mice): protected mice against the development of acute footpad inflammation; suppression of TNF secretion [4, 8]: effectively suppressed TNF secretion; inhibition of cytokine synthesis ([4]; serum-free conditions and in the presence of the polyamine oxidase inhibitor aminoguanidine): effectively inhibit cytokine synthesis
